# Results: patent publication US7410975B2, “Small molecule toll-like receptor (TLR) antagonists” (Coley Pharmaceutical Group, Inc., priority 2003, dated 2008)
# Where a name gives a salt, the structure may show the parent alone.
# Molecular target: T1, human TLR8 (hTLR8) (Homo sapiens, UniProt Q9NR97)
# T1 construct: expressed in transfected cells
# T1 sequence (Q9NR97 27-1041): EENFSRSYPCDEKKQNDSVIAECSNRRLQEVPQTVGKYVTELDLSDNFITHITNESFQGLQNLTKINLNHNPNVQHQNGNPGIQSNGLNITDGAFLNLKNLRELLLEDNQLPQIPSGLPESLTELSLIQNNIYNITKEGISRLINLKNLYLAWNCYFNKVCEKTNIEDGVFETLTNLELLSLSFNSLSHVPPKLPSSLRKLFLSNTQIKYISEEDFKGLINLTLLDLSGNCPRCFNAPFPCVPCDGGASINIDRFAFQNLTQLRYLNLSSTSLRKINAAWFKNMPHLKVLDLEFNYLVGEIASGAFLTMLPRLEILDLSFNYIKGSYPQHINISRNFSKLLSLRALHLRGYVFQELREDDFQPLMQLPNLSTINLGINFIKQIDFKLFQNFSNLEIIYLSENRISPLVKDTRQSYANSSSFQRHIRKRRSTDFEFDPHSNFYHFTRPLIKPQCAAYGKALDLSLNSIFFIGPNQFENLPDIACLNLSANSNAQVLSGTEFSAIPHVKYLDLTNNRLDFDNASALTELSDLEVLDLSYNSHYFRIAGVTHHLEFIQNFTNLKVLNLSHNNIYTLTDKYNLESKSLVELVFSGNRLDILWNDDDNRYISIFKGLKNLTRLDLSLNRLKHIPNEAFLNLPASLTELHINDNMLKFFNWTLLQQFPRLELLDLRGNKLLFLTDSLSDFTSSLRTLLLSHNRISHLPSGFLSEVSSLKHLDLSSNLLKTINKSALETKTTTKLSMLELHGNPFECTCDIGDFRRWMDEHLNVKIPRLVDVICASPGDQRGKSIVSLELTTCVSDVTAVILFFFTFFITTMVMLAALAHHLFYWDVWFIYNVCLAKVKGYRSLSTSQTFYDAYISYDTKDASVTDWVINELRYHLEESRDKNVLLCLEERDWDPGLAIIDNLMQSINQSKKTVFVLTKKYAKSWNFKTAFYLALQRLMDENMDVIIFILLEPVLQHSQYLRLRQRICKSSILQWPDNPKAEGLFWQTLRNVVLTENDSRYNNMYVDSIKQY
# Experiment: Antagonist screen, hTLR8-NFκB-293 cells, NF-κB-luciferase reporter, with EC50 of R848
# Type: cell-based
# Details: compound at 0.5, 5, 50 μg/ml; EC50 concentration of R848; 16 h; NF-κB-luciferase
# Procedure: The method is described in greater detail as follows. The cells for each individual cell clone (hTLR3-NFκB-293, hTLR7-NFκB-293, hTLR8-NFκB-293 and hTLR9-NFκB-293) were counted and seeded one day before the stimulation at 1.5×10^4 cells per well in 96-well cell culture plates. To become adherent the cells were incubated after seeding overnight at 37° C. in 5% CO2 humidified air.
# The screen for each compound was performed at the same time for all of the receptors TLR3, TLR7, TLR8 and TLR9. Up to fifteen test compounds, each assayed in duplicate at each of three different final concentrations (0.5 μg/ml, 5 μg/ml, and 50 μg/ml), were used for 16 h cell stimulation on a single multiwell culture plate. A 4× final concentration master plate was created to prepare the different test compounds before they were added to the cells.
# Controls were added as duplicates individually for each cell clone on the cell culture plate. Positive controls were used as follows (final concentrations): 50 μg/ml poly(I:C) for hTLR3-NFκB-293; 8 μM resiquimod (R848) for hTLR7-NFκB-293; 30 μM R848 for hTLR8-NFκB-293; and 2.5 μM CpG-ODN 2006 for hTLR9-NFκB-293. Media alone was used as negative control. After addition of controls and small molecules, the cell clones were additionally stimulated with the EC50 concentration of the appropriate receptor-specific ligand.
# The mean value of wells H2 and H5 (each with cells and EC50 concentration of the appropriate receptor-specific ligand) divided by the mean of wells H3 and H6 (each with cells alone) yielded the baseline response (i.e., fold induction of luciferase activity) to EC50 concentration of the appropriate receptor-specific ligand.
# After 16 h stimulation the supernatant was removed and the cells treated with lysis buffer and stored at −80° C. before measuring.
# For each screen result a graphical documentation was performed.
# The baseline result (measured with addition of the EC50 concentration of the receptor-specific ligand) for each cell culture plate was measured as described above. Antagonistic effects were measured by down regulation compared to the baseline. Antagonists were scored as follows: • 13: compounds for which there was clear down regulation at 0.5 μg/ml, 5 μg/ml, and 50 μg/ml; • 12: compounds for which there was clear down regulation at 5 μg/ml and 50 μg/ml; • 11: compounds for which there was clear down regulation only at 50 μg/ml; • —: compounds for which there was no clear down regulation even at 50 μg/ml. Agonists
# Results were expressed as fold induction over baseline luciferase activity measured in the absence of R848. […] Additional screening was performed in like manner using additional small molecules selected from another library or specifically prepared for this purpose. Scoring is reported as above but as applied to TLR8.
row,Structure (SMILES),"hTLR8 (inhibitory effect, antagonist score)"
1,"CC(=O)c1ccc2c(c1)N(CCCN(C)C)c1ccccc1S2.O=C(O)/C=C\C(=O)O [compound 576, Acetopromazinemaleate salt]",— (compounds for which there was no clear down regulation even at 50 μg/ml)
2,"COC(=O)C1=CO[C@@H](C)[C@@H]2CN3CCc4c([nH]c5ccccc45)[C@@H]3C[C@H]12 [compound 593, Tetrahydroalstonine]",— (compounds for which there was no clear down regulation even at 50 μg/ml)
3,"CC[C@]12CCCN3CCc4c(n(c5ccccc45)C(=O)C1)[C@@H]32 [compound 607, Eburnamonine]",— (compounds for which there was no clear down regulation even at 50 μg/ml)
4,"Cc1nccc2c1[nH]c1cc(O)ccc12.Cl [compound 612, Harmol hydrochloride monohydrate]",11 (compounds for which there was clear down regulation only at 50 μg/ml)
5,"COc1ccc2c(c1)[nH]c1c(C)nccc12.Cl [compound 613, harmine hydrochloride]","13 (compounds for which there was clear down regulation at 0.5 μg/ml, 5 μg/ml, and 50 μg/ml)"
6,"Cc1c2ccncc2c(C)c2c1[nH]c1ccccc12 [compound 614, Ellipticine]",11 (compounds for which there was clear down regulation only at 50 μg/ml)
7,"Cc1nccc2c1[nH]c1ccccc12 [compound 620, Harmane hydrochloride]",— (compounds for which there was no clear down regulation even at 50 μg/ml)
8,"COc1ccc2[nH]c3c(c2c1)CCN=C3C [compound 621, Methoxy-6-harmalan]",— (compounds for which there was no clear down regulation even at 50 μg/ml)
9,"CC[C@]12CCCN3CCc4c(n(c5ccccc45)[C@](O)(C(=O)OC)C1)[C@@H]32 [compound 636, Epivincamine]",— (compounds for which there was no clear down regulation even at 50 μg/ml)
10,"Cl.Cl.c1ccc2c3c([nH]c2c1)C1C2CCC(C4CCCNC42)N1CC3 (centres unmarked) [compound 685, Nitrarine dihydorchloride]",— (compounds for which there was no clear down regulation even at 50 μg/ml)
11,"CN(C)CCCN1c2ccccc2Sc2ccccc21.Cl [compound 693, Promazinehydrochloride]",— (compounds for which there was no clear down regulation even at 50 μg/ml)
12,"CN1CCC(OC(c2ccccc2)c2ccccc2)CC1.Cl [compound 707, Diphenylpyralinehydrochloride]",— (compounds for which there was no clear down regulation even at 50 μg/ml)
13,"CCCC(C(=O)OCCN(CC)CC)(c1ccccc1)c1ccccc1.Cl [compound 778, Proadifen hydrochloride]",11 (compounds for which there was clear down regulation only at 50 μg/ml)
14,"Cl.Clc1ccc(C(OCCN2CCCCC2)c2ccccc2)cc1 (centres unmarked) [compound 793, Cloperastinehydrochloride]",— (compounds for which there was no clear down regulation even at 50 μg/ml)
15,"COc1ccc2c(c1)N(CC(C)CN(C)C)c1ccccc1S2.O=C(O)/C=C\C(=O)O (centres unmarked) [compound 797, Methotrimeprazinemaleat salt]",11 (compounds for which there was clear down regulation only at 50 μg/ml)
16,"CS(=O)(=O)O.OC(CCN1CCCCC1)(c1ccccc1)c1ccccc1 [compound 799, Pridinolmethanesulfonate salt]",— (compounds for which there was no clear down regulation even at 50 μg/ml)
17,"C[N+]12CCC(CC1)C(OC(=O)C(O)(c1ccccc1)c1ccccc1)C2.[Br-] (centres unmarked) [compound 822, Clidinium bromide]",— (compounds for which there was no clear down regulation even at 50 μg/ml)
18,"Clc1ccc(C(c2ccccc2Cl)C(Cl)Cl)cc1 (centres unmarked) [compound 833, Mitotane]",11 (compounds for which there was clear down regulation only at 50 μg/ml)
19,"CCN(CC)C(C)CN1c2ccccc2Sc2ccccc21.Cl (centres unmarked) [compound 840, Ethopropazinehydrochloride]",11 (compounds for which there was clear down regulation only at 50 μg/ml)
20,"CC(CN(C)C)CN1c2ccccc2Sc2ccccc21.CC(CN(C)C)CN1c2ccccc2Sc2ccccc21.O=C(O)C(O)C(O)C(=O)O (centres unmarked) [compound 842, Trimeprazine tartrate]",11 (compounds for which there was clear down regulation only at 50 μg/ml)
21,"COC(=O)[C@H]1[C@H]2C[C@@H]3c4[nH]c5cc(OC)ccc5c4CCN3C[C@H]2C[C@@H](OC(=O)c2cc(OC)c(OC)c(OC)c2)[C@@H]1OC [compound 875, Reserpine]",— (compounds for which there was no clear down regulation even at 50 μg/ml)
22,"OCc1cc2c(cn1)[nH]c1ccccc12 [compound 878, 3-hydroxymethyl-beta-carboline]",— (compounds for which there was no clear down regulation even at 50 μg/ml)
23,O=C(O)c1cc(C(c2ccc(O)c(C(=O)O)c2)C(Cl)(Cl)Cl)ccc1O [compound 884],11 (compounds for which there was clear down regulation only at 50 μg/ml)
24,CN(CCO)C(=O)c1cccc2c1-c1ccccc1C2=O [compound 890],11 (compounds for which there was clear down regulation only at 50 μg/ml)
25,COC(=O)c1cccc2c1-c1ccccc1/C2=N/O [compound 904],"13 (compounds for which there was clear down regulation at 0.5 μg/ml, 5 μg/ml, and 50 μg/ml)"
26,O=C(O)c1ccccc1NC1CC=CC2=C1C(=O)c1ccccc1C2=O (centres unmarked) [compound 917],— (compounds for which there was no clear down regulation even at 50 μg/ml)
27,O=C(O)c1cccc2c1/C(=N/O)c1ccccc1-2 [compound 918],— (compounds for which there was no clear down regulation even at 50 μg/ml)
28,CCCCOC(=O)c1cc([N+](=O)[O-])cc2c1-c1cc(CO)c([NH+]([O-])O)cc1C2=C(C#N)C#N (centres unmarked) [compound 939],— (compounds for which there was no clear down regulation even at 50 μg/ml)
29,O=C(O)c1cccc2c1-c1ccccc1/C2=N/Nc1ccc([N+](=O)[O-])cc1[N+](=O)[O-] [compound 944],— (compounds for which there was no clear down regulation even at 50 μg/ml)
